Data set [1] can be described thus: Study 1: pharmacokinetics of octreotide delivered via RP or IV injection (plasma LC/MS/MS). Particulars: human, in vivo, 100 ug. Here is the method:
This was a single-center, open-label study.
Fluoroscopic imaging was performed with Siemens AXIOM Artis dMP using standard abdominal protocol.
Serial blood samples for PK analysis were collected immediately before the injection and at 5, 10, 15, 20, 25, 30, 40, 50, 60, 90, 120, 150, 180, and 240 min after dosing.
Blood samples were collected into potassium-EDTA treated lavender top tubes, plasma was separated via centrifugation and aliquots stored at −80℃ until analyzed. […] The analysis was performed using an API 5000 mass spectrometer from Applied Biosystems.
MS Excel (2016) and GraphPad (Version 8.4.3) were used for data analysis. Categorical data are expressed as counts and percentages, and continuous data as mean ± standard deviation (SD) or standard error (SE), as indicated. PK parameters were calculated using noncompartmental analysis (NCA) implemented within a validated installation of Phoenix® WinNonlin. The Cmax (peak plasma concentration) and Tmax (time to reach Cmax) were obtained graphically from the concentration vs. time profiles. Unpaired t tests were used to determine differences between groups with a p value of 0.05 or less deemed as significant.

The conditions of data set [2]: in vivo, cited from earlier work. The procedure: For example, subjects need to take oral semaglutide at least 30 min before the first food, beverage, or other or ...

The text below walks through data of PMC8677648, “A robotic pill for oral delivery of biotherapeutics: safety, tolerability, and performance in healthy subjects” (Drug Delivery and Translational Research, 2021).

Regarding `C[C@@H](O)[C@@H]1NC(=O)[C@H](CCCCN)NC(=O)[C@@H](Cc2c[nH]c3ccccc23)NC(=O)[C@H](Cc2ccccc2)NC(=O)[C@@H](NC(=O)[C@H](N)Cc2ccccc2)CSSC[C@@H](C(=O)N[C@H](CO)[C@@H](C)O)NC1=O` [octreotide], in data set [1], the concentration peaked (Cmax) at 11.1 ng/mL and the Tmax is 5 min.
As for semaglutide, the bioavailability in data set [2] (po) is given as ~ 1%. In data set [2], the half-life was 170 h.

For orientation: Cmax means the maximum level reached in the sampled fluid or tissue. In general, Tmax refers to the time from dosing to the highest level. What is called half-life is the time needed for the level to fall by half in the phase considered.
